According to PubChem BioAssay (NCI):
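Briefly, cells in 96-well plates were exposed to five compound concentrations for 48 h, and endpoints were estimated by linear interpolation. Here, GI50 denotes the concentration required for 50% inhibition of growth. At the TGI there is no net growth.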

Tests used:
Test in all cases: NCI tumour cell line growth inhibition, 48 h
MCF7 breast = test system: MCF7 breast
LOX IMVI melanoma = test system: LOX IMVI melanoma
IGROV1 ovarian = test system: IGROV1 ovarian
HS 578T breast = test system: HS 578T breast
MOLT-4 leukemia = test system: MOLT-4 leukemia
SF-268 CNS = test system: SF-268 CNS
HOP-92 NSCLC = test system: HOP-92 NSCLC
K-562 leukemia = test system: K-562 leukemia

| Structure (SMILES) | GI50 (MCF7 breast) [µM] | TGI (MCF7 breast) [µM] | GI50 (LOX IMVI melanoma) [µM] | GI50 (IGROV1 ovarian) [µM] | TGI (IGROV1 ovarian) [µM] | GI50 (HS 578T breast) [µM] | TGI (HS 578T breast) [µM] | GI50 (MOLT-4 leukemia) [µM] | TGI (MOLT-4 leukemia) [µM] | GI50 (SF-268 CNS) [µM] | TGI (SF-268 CNS) [µM] | GI50 (HOP-92 NSCLC) [µM] | TGI (HOP-92 NSCLC) [µM] | GI50 (K-562 leukemia) [µM] | TGI (K-562 leukemia) [µM] | TGI (LOX IMVI melanoma) [µM] |
| --- | --- | --- | --- | --- | --- | --- | --- | --- | --- | --- | --- | --- | --- | --- | --- | --- |
| CC(C)NCCCn1c(Sc2cc3c(cc2I)OCO3)nc2c(N)ncnc21 | 0.0453 | > 100 | 0.0787 | 0.0885 | 3.52 | 1.28 | > 100 | 0.0915 | > 91.9 | 2.1 | > 100 | 0.289 | 1.62 | 0.0708 | > 100 | – |
| CCOC(=O)C1=C(C)N(c2ccc(Cl)cc2)[C@]2(C#N)C(O)=C(Cl)C(Cl)=C(O)[C@]12C#N | > 100 | > 100 | 4.95 | > 100 | > 100 | > 100 | > 100 | > 100 | > 100 | > 100 | > 100 | 78.2 | > 100 | 21.5 | > 100 | > 100 |
| O=C(Nc1ccc(OCc2nnc(-c3ccc(Cl)cc3)o2)c(F)c1)Nc1ccc(Cl)c(C(F)(F)F)c1 | 1.92 | 7.7 | 2.23 | 2.9 | 10.5 | 2.13 | 7.96 | 2.07 | 7.5 | 3.33 | 12.5 | 1.46 | 3.82 | 2.94 | 12.6 | 6.66 |
| O=C1NC(=O)C(N2C(=O)c3ccccc3C2=O)CC1O (stereo not given) | > 100 | > 100 | > 100 | > 100 | > 100 | > 100 | > 100 | > 100 | > 100 | > 100 | > 100 | > 100 | > 100 | > 100 | > 100 | > 100 |
| Cc1cc(S(=O)(=O)/N=C(/N)Nc2ccccc2O)c(SCc2ccccc2)cc1Cl | 15.9 | 55.7 | 14.6 | 11 | 26.9 | 21.8 | 47.9 | 3.01 | 42.3 | 13.4 | 45.4 | 15.3 | 35.6 | 10.2 | > 100 | 33.5 |
| O=S(=O)(Nc1cc(Sc2cccc3cccnc23)c(O)c2ccccc12)c1ccc(F)cc1 | 1.05 | 3.21 | 0.624 | 1.06 | 4.2 | 4.44 | 45.7 | 0.432 | 3.21 | 1.89 | 11.9 | 2.02 | 7.08 | 1.37 | 9.52 | 2.82 |
